Data reported in patent US9758526B2, “Quinoline-substituted compound” (TAIHO PHARMACEUTICAL CO., LTD., priority 2013, dated 2017).

Columns and labels:
[1] = tested on: NCI-H1975 expressing EGFR (T790M/L858R); assay: Growth inhibition, NCI-H1975 expressing EGFR (T790M/L858R); format: cell-based; details: Homo sapiens, NCI-H1975, 72 h; cultured three days, CellTiter-Glo
How it was run: (§1)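 Cells seeded and grown 1 day, then exposed 3 days at 37 °C/5% CO2 to serial dilutions (final DMSO 0.2%). CellTiter-Glo luminescence was read before dosing and after 3 days; GI50 from inhibition (C−T)/(C−C0)×100 by curve fitting.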

[2] = tested on: A431 expressing EGFR (WT); assay: Growth inhibition, A431 expressing EGFR (WT); format: cell-based; details: Homo sapiens, A-431, 72 h; cultured three days, CellTiter-Glo
How it was run: as §1

EGFR (WT) = target: T1, EGFR (WT) (Homo sapiens, UniProt P00533); assay: EGFR (WT) kinase inhibitory activity; format: biochemical; details: substrate peptide 500 nM
T1 construct: expressing a cytoplasmic domain of human EGFR (WT) with its N-terminus fused to a FLAG tag; FLAG (N); made in house; host or cells: insect Sf9 cells, baculovirus expression system
T1 sequence (P00533 669-1210 limits assumed): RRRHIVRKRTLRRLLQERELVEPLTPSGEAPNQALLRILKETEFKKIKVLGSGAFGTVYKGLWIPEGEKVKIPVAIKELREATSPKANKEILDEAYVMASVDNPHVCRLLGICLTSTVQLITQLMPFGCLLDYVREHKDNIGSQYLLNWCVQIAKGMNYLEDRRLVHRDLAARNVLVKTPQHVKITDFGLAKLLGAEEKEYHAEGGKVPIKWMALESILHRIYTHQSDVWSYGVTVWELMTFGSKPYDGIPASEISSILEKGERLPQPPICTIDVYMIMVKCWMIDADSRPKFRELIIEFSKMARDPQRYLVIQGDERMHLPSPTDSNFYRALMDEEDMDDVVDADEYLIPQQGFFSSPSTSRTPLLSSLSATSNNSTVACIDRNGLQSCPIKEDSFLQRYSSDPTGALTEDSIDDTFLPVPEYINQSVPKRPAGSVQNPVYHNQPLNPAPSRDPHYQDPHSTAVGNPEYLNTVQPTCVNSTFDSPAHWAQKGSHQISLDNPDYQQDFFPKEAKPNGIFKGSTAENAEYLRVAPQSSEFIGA
How it was run: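 The kinase was the cytoplasmic domain of human EGFR WT, N-terminally FLAG-tagged, expressed in Sf9 cells via baculovirus and purified on anti-FLAG agarose. Phosphotyrosine was detected by Eu-PT66/APC-SA TR-FRET (665/620 nm ratio), and IC50 was fitted from % inhibition.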

EGFR (d746-750) = target: T2, EGFR (d746-750) (Homo sapiens, UniProt P00533, DEL746-750); assay: EGFR (d746-750) kinase inhibitory activity; format: biochemical; details: ATP 5 μM, kinase reaction 90 minutes
T2 construct: purchased Carna Biosciences, Inc
T2 sequence (P00533 with tags, fused parts or gaps DEL746-750 limits assumed): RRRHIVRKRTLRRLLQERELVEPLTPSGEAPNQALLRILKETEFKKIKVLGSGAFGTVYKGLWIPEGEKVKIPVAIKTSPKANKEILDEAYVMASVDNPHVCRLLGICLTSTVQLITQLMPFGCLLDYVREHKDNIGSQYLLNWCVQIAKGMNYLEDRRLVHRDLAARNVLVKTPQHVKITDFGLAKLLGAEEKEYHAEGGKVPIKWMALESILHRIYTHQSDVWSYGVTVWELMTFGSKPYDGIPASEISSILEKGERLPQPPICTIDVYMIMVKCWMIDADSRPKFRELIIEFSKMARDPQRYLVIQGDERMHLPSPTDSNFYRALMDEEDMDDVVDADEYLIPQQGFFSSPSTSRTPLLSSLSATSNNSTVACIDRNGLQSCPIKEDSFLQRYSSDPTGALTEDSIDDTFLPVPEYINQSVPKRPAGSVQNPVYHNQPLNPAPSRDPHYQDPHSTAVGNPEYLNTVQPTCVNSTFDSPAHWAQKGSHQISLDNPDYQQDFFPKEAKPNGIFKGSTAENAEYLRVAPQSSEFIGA
How it was run: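 Recombinant human EGFR (d746-750) with 250 nM biotinylated peptide, 5 μM ATP, 10 mM MgCl2 and 10 mM MnCl2, 2.5% DMSO, reacted 90 min at 25° C., stopped with EDTA. Phosphotyrosine detected by TR-FRET (Eu-PT66 antibody/APC-streptavidin, 665/620 nm ratio), with EDTA-pre-stopped background; IC50 (nM) from inhibition curve fit.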

EGFR (L858R) = target: T3, EGFR (L858R) (Homo sapiens, UniProt P00533, L858R); assay: EGFR (L858R) kinase inhibitory activity; format: biochemical; details: ATP 4 μM
T3 construct: purchased Carna Biosciences, Inc
T3 sequence (P00533 25-1210 L858R): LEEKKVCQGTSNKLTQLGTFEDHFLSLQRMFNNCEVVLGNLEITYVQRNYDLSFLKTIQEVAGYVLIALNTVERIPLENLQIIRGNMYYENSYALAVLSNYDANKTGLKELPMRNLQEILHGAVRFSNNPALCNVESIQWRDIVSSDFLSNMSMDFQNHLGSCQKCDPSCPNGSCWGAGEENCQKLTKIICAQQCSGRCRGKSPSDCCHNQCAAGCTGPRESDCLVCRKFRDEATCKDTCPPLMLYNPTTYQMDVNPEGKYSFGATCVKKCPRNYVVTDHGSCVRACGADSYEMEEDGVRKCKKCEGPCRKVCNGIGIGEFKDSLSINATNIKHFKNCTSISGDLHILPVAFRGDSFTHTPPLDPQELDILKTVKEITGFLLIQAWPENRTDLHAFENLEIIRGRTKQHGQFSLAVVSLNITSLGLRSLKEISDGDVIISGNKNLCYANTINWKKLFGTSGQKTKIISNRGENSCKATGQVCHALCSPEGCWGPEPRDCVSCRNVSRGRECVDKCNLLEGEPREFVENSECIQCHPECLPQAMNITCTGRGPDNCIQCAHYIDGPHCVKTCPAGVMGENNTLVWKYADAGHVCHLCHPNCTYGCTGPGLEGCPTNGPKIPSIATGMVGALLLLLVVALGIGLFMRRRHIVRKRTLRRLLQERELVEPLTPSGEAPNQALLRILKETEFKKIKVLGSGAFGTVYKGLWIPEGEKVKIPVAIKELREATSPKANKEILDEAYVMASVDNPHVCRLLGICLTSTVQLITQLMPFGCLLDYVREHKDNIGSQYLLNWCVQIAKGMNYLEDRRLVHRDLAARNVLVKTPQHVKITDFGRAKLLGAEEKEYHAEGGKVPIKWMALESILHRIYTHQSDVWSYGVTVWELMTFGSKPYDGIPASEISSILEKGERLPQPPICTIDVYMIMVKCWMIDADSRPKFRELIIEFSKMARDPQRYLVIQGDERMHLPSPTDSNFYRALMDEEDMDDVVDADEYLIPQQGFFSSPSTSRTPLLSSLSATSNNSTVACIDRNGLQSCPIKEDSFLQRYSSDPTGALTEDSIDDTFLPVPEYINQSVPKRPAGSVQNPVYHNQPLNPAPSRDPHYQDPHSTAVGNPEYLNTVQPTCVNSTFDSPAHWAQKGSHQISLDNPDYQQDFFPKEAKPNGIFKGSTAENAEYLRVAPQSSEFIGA
How it was run: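 Recombinant human EGFR (L858R) was incubated with 250 nM biotinylated peptide, 4 μM ATP, 10 mM MgCl2 and 10 mM MnCl2 in 2.5% DMSO for 120 min at 25 °C. The reaction was stopped with EDTA, and phosphotyrosine was detected by TR-FRET (Eu-PT66 antibody/APC-SA, 665/620 nm ratio). IC50 was obtained from the inhibition curves.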

EGFR (d746-750/T790M) = target: T4, EGFR (d746-750/T790M) (Homo sapiens, UniProt P00533, DEL746-750/T790M); assay: EGFR (d746-750/T790M) kinase inhibitory activity; format: biochemical; details: ATP 1.5 μM
T4 construct: purchased Carna Biosciences, Inc
T4 sequence (P00533 with tags, fused parts or gaps DEL746-750/T790M limits assumed): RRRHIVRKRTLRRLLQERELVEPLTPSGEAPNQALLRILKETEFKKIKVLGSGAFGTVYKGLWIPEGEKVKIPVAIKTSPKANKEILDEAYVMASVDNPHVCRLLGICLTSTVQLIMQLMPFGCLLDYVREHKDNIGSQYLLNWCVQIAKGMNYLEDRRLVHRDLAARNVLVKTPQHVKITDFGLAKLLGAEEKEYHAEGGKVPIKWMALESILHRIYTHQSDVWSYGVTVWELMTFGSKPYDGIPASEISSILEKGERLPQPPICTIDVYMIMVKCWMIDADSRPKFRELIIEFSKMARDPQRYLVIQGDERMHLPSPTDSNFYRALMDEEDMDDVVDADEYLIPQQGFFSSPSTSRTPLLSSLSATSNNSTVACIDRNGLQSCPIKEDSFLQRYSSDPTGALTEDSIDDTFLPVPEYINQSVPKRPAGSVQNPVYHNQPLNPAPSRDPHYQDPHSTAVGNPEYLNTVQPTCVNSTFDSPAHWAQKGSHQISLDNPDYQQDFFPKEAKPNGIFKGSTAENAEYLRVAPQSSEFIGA
How it was run: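 Recombinant human EGFR d746-750/T790M phosphorylating biotinylated peptide (250 nM) with 1.5 μM ATP, 10 mM MgCl2 and MnCl2, 2.5% DMSO, 120 min at 25 °C. EDTA-stopped; phosphotyrosine detected by Eu-PT66/APC-SA TR-FRET (665/620 nm ratio). IC50 from percent inhibition curves, EDTA-first samples as background.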

EGFR (T790M/L858R) = target: T5, EGFR (T790M/L858R) (Homo sapiens, UniProt P00533, L858R/T790M); assay: EGFR (T790M/L858R) kinase inhibitory activity; format: biochemical; details: ATP 1 μM, 25° C. for 120 minutes
T5 construct: purchased Carna Biosciences, Inc
T5 sequence (P00533 25-1210 T790M/L858R): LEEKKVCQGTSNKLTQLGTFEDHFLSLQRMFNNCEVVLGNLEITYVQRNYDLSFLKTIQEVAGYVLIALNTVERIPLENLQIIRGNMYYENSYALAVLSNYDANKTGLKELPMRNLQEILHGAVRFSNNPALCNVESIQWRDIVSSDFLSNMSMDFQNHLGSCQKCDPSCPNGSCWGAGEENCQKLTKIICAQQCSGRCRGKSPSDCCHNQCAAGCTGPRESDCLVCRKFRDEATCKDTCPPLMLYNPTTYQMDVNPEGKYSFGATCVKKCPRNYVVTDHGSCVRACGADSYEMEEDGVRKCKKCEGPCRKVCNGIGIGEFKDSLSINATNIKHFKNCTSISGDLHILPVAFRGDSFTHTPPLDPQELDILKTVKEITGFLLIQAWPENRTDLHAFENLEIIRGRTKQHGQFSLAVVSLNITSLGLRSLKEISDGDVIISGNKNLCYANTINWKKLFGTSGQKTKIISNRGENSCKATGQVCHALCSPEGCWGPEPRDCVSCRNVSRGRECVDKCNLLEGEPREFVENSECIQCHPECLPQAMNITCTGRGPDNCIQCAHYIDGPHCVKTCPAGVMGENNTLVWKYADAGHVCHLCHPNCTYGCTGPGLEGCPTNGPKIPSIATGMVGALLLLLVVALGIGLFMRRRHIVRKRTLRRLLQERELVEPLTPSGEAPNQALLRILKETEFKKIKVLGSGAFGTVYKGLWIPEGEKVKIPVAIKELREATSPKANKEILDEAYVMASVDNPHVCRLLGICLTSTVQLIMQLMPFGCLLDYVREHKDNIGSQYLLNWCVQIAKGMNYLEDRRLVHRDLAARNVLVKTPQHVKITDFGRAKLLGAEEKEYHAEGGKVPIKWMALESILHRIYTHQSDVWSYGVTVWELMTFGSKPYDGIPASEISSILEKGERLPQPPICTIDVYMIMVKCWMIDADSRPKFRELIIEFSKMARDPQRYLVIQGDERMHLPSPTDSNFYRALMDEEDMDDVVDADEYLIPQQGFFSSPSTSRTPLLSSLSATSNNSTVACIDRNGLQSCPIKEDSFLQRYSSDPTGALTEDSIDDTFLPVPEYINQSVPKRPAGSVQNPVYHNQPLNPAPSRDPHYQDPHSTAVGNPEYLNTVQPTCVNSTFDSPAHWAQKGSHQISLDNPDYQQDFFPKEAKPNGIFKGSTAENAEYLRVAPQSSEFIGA

[3] = tested on: HCC827 expressing EGFR (d746-750); assay: Growth inhibition, HCC827 expressing EGFR (d746-750); format: cell-based; details: Homo sapiens, HCC827, 72 h; cultured three days, CellTiter-Glo
How it was run: as §1

GI50 [1]: 150 nM | GI50 [2]: 1200 nM | IC50 (EGFR (WT)): 24 nM | IC50 (EGFR (d746-750)): 2.1 nM | IC50 (EGFR (L858R)): 2.8 nM | IC50 (EGFR (d746-750/T790M)): 1.1 nM | IC50 (EGFR (T790M/L858R)): 2.1 nM | GI50 [3]: 13 nM
SMILES: C=CC(=O)N[C@@H]1CCn2c(c(-c3cnc4ccccc4c3)c3c(N)ncnc32)C1=C [Example 13, (R)—N-(4-amino-6-methylene-5-(quinolin-3-yl)-6,7,8,9-tetrahydropyrimido[5,4-b]indolizin-7-yl)acrylamide]
